Consider 8 compounds from patent US5648336A (University of Colorado, priority 1994, dated 1997).

In one experiment the test system is guinea pig ileum. From the text: (§1) A change of one unit of pA2 value represents an order of magnitude change in potency.
(§2) On isolated smooth muscles, agonist potency is given as percent of BK potency; antagonist potency is given as pA2, and is underlined. In blood pressure assays, the number is the dose of peptide in micrograms that causes 50% reduction in the effect of BK intraarterially administered as a bolus mixture in a 500 g male rat; Ag indicates unquantitated agonist activity; Ant indicates unquantitated antagonist activity.

Another experiment deals with isolated rat uterus.
Source text: as §1, §2

For experiment [1], the target named is T1, B1 receptors (Oryctolagus cuniculus, UniProt P48748).
T1 construct: The thorax was opened and the thoracic aorta carefully removed; from tissue; host or cells: rabbit thoracic aorta spiral strips
T1 sequence (P48748 1-352): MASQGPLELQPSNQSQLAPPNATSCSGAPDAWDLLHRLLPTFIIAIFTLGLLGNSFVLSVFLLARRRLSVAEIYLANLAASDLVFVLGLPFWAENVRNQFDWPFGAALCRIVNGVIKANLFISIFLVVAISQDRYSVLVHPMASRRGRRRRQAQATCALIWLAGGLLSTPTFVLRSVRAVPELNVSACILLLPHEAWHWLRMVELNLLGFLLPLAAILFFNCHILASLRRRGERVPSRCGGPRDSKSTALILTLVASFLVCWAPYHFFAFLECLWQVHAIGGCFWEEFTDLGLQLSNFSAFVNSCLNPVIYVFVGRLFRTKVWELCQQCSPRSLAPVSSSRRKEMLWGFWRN
The experiment can be described thus: B1 receptor bioassay, rabbit aorta strips contracted with des-Arg9-BK. The class given is cell-based. The settings on record: 50% reduction of sustained contraction to 10^-7 M des-Arg9-BK; read-out: Rabbit Aorta p IC50 B1 receptors (converted). As to the method: Male New Zealand white rabbits, weight range 2-3 kg, were killed by an overdose of pentobarbital i.v. The thorax was opened and the thoracic aorta carefully removed. […] The tissues were placed under 1 gm isometric tension and allowed to equilibrate for 1H. At time 1h, a concentration-effect curve was constructed to the selective B1 agonist des-Arg^9 -BK. This was repeated at time 3 hours. […] Once the contraction was sustained, the compound to be assayed was applied to the tissue bath in a cumulative manner. The concentration of the compound which produced a 50% reduction of the sustained contraction was calculated. The negative logarithm of this concentration was calculated and expressed as the […].

The target in a further experiment is B2 receptors (Canis lupus familiaris, UniProt Q9BDQ4). The note with it: anaesthetized dog, i.v. infusion, BK challenge, n=3. Here is the method: Mongrel dogs of either sex, weight range 10-15 kg were used. These were anaesthetized with pentobarbital, 30 mg/kg i.v., and catheters were placed in one femoral artery and both femoral veins for the recording of blood pressure and infusion and injection of compounds.

In experiment [2] the target is T2, B1 receptors (Canis lupus familiaris, UniProt Q9BDQ5).
T2 construct: Mongrel dogs of either sex, weight range 10-15 kg were used; from tissue; host or cells: anaesthetized mongrel dog, whole animal
T2 sequence (Q9BDQ5 1-350): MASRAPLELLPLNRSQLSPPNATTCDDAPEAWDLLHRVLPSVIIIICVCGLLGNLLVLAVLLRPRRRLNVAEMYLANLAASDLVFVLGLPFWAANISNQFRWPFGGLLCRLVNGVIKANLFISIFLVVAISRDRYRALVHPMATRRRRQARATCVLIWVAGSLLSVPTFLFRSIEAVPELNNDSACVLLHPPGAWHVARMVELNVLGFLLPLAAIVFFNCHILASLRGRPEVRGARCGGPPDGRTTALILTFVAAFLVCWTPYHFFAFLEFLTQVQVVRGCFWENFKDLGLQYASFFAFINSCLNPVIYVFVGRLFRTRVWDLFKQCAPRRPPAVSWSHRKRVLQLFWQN
The experiment can be described thus: Dog blood pressure, hypotensive response to des-Arg9-BK. The class given is in vivo. The note with it: anaesthetized dog, i.v. infusion, des-Arg9-BK challenge, n=3.

The subject of experiment [3] is hypotensive action of bradykinin. Nature of the experiment: Blood pressure in the anesthetized rat: inhibition of hypotensive action of bradykinin. The settings on record: intraarterial bolus mixture with BK, 500 g male rat; indicated approximately. The class given is in vivo.
Source text: Potencies for the antagonists in this assay are not reported precisely, but rather are indicated approximately.
as §2

Another experiment concerns the target T3, Human B2 receptors (Homo sapiens, UniProt P30411).
T3 construct: expressed in transfected cells; membranes used
T3 sequence (P30411 1-364 isoform P30411-2): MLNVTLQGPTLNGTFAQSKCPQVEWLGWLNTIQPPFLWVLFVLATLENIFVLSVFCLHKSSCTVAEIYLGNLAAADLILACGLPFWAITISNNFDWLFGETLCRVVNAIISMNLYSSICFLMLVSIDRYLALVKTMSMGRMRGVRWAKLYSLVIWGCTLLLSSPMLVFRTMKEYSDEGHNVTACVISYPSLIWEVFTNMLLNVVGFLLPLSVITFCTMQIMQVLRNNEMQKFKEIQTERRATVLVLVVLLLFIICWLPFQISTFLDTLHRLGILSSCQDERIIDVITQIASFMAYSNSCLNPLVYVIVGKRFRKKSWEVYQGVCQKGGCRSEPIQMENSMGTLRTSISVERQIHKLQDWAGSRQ
Nature of the experiment: Human B2 binding, cloned receptor in CHO cell membranes, 3H-bradykinin. The settings on record: CHO clone S34f membranes, 0.3 nM 3H-Bradykinin, room temperature 45 min; read-out: Human Receptor Clone B2 receptor binding (Ki) (converted). From the text: Human B2 receptors were cloned and expressed in Chinese hamster ovary cells. RNA was isolated from human lung fibroblasts (CCD-16 LU obtained from the ATCC) using the method of Chirgwin et al (Biochemistry 18:5294 (1979)). The RNA was transcribed into cDNA using MMLV reverse transcriptase, the primer […] and the procedure of Maniatis (Molecular Cloning Cold Spring Harbor Laboratory (1982)). The human B2 receptor cDNA was selectively amplified using nested PCR. The first round PCR used the two primers […] and […] and Taq DNA polymerase (Promega). Twenty-five rounds of PCR were done using the following conditions: 94° C., 1 minute for denaturation, 50° C., 1 minute for annealing followed by 72° C., 3 minutes for extension. Excess primers were removed with a Centricon 30 miniconcentrator. A portion of this first round reaction was used as a template in a second round of PCR using the following primers […] and […]. The number of rounds of PCR and the conditions were the same as those used for the first round. The DNA obtained after this second round was digested with the restriction enzymes Hind III and Xba I using standard methodology. Cesium chloride-purified pRc/CMV (Invitrogen) was also digested with Hind III and Xba I using standard methodology. The products of the two digests were resolved on a 1% low melt agarose gel. The human B2 receptor DNA (approximately 1.1 kb) and the pRc/CMV DNA (approximately 5.5 kb) were excised from the gel. The gel slices containing these DNAs were heated at 65° C. and aliquots combined in a reaction containing T4 DNA ligase. The reaction was incubated overnight at 15° C.
An aliquot of this reaction was used to transform frozen competent E. coli DH5α cells (GibcoBRL). Transformants containing the human B2 receptor DNA were selected on LB+amp plates. One of the transformants was selected and the sequence of the human B2 receptor DNA insert determined using the Sequenase enzyme (United States Biochemical) according to the manufacturer's instructions. This sequence was compared to the sequence of Hess et al (Biochemical and Biophysical Research Communications 184:260 1992)). […] The human BK2 receptor-pRc/CMV plasmid was transfected into CHO-k1 cells using the Lipofectamine reagent (GibcoBRL).
Cells containing the receptor were grown to confluence and harvested by scraping into PBS and homogenized. Membranes were prepared by centrifugation in 25 mM TES pH6.8 containing 1 mM 1.10 Phenanthroline. The final pellet was resuspended in assay buffer (25 mM TES, 1 mM 1.10 Phenanthroline, 1 mM DTT, […] Captopril, 0.1% BSA pH=6.8) and frozen. […] Incubation was carried out at room temperature for 45 min. The assay was terminated by filtration through a polyethylenimine soaked G-A filter. Radioactivity was measured on a Wallac 1450 MicroBeta LSC.
The Kd for the receptor was determined by kinetic analysis of on and off rates utilizing a single exponential decay off rate. Ki 's for compounds were calculated using the following equation: Ki =IC50 /(1+[L]/Kd), where L=free ligand concentration.

Where [4] appears, read: guinea pig ileum, vs double ED50 dose of bradykinin.

Like-named read-outs stand apart in the source and are kept apart here.

Chain of B2 receptors (Q9BDQ4 1-392): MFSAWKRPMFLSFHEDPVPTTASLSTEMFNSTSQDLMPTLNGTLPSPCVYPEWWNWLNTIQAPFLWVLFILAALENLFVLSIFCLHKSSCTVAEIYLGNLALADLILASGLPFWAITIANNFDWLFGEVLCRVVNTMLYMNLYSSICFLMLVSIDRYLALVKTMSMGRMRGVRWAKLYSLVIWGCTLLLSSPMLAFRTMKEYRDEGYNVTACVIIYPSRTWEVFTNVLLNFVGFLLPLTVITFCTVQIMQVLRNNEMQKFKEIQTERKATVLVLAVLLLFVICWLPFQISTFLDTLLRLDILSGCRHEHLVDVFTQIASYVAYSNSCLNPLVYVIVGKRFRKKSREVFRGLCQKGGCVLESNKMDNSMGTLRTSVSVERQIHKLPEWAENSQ

`N=C(N)NCCC[C@@H](N)C(=O)N[C@@H](CCCNC(=N)N)C(=O)N1CCC[C@H]1C(=O)N1C[C@H](O)C[C@H]1C(=O)NCC(=O)N[C@H](C(=O)N[C@@H](CO)C(=O)N[C@@H](C(=O)N1[C@H](C(=O)N[C@@H](CCCNC(=N)N)C(=O)O)C[C@@H]2CCCC[C@@H]21)C1Cc2ccccc2C1)C1Cc2ccccc2C1` [Compound 1, DArg-Arg-Pro-Hyp-Gly-Iglb-Ser-DIglb-O ic-Arg]: the “Ileum Activity, antagonist potency given as pA2” value (“Ileum Activity” below) in the experiment on guinea pig ileum was found to be 7.9. In addition, in the experiment with isolated rat uterus, the “Uterus Activity, antagonist potency given as pA2” value (“Uterus Activity … as pA2” below) was 8.5. The concentration for half-maximal inhibition (IC50) at B1 receptors [1] was 251 nM. Further, the “Mean ED50, B2 receptor-mediated hypotensive response” value on B2 receptors is 0.03 mg/kg/min. For the same compound, the “Mean ED50, B1 receptor-mediated hypotensive response” value on B1 receptors [2] is listed as 0.24 mg/kg/min.

For the compound “DArg-Arg-Pro-Hyp-Gly-Thi-Ser-DIglb-Dic-Arg [Compound 41]”, the “Blood Pressure: dose of peptide that causes 50% reduction in the effect of BK” value in experiment [3] was 50 micrograms.

As to “Aca-DArg-Arg-Pro-Hyp-Gly-Thi-Ser-DHigb-Oic-Arg [Compound 124]”, the “Ileum Activity” value in the experiment with guinea pig ileum (setting [4]) stood at 7.7. In experiment [3], the “Blood Pressure: dose of peptide that causes 50% reduction in the effect of BK” value turned out to be 0 micrograms.

On to `N=C(N)NCCC[C@H](NC(=O)[C@@H]1C[C@@H]2CCCC[C@@H]2N1C(=O)[C@H](NC(=O)[C@H](CO)NC(=O)[C@@H](NC(=O)CNC(=O)[C@@H]1C[C@@H](O)CN1C(=O)[C@@H]1CCCN1C(=O)[C@H](CCCNC(=N)N)NC(=O)[C@@H](CCCNC(=N)N)NC(=O)C1=CN2CCC1CC2)C1Cc2ccccc2C1)C1Cc2ccccc2C1)C(=O)O` [Compound 3, Dhg-DArg-Arg-Pro-Hyp-Gly-Iglb-Ser-DIg lb-Oic-Arg], for which the “Ileum Activity” value in the experiment on guinea pig ileum came out at 7.6. In addition, in the experiment with isolated rat uterus, the “Uterus Activity … as pA2” value worked out at 7.4. Further, on B1 receptors [1], the IC50 was 1170 nM. Further, the Ki on Human B2 receptors is 0.00141 nM.

With `N=C(N)NCCC[C@@H](N)C(=O)N[C@@H](CCCNC(=N)N)C(=O)N1CCC[C@H]1C(=O)N1C[C@H](O)C[C@H]1C(=O)NCC(=O)N[C@@H](Cc1cccs1)C(=O)N[C@@H](CO)C(=O)N[C@@H](C(=O)N(CC(=O)N[C@@H](CCCNC(=N)N)C(=O)O)C1Cc2ccccc2C1)C1Cc2ccccc2C1` [Compound 28, DArg-Arg-Pro-Hyp-Gly-Thi-Ser-DIgl-Nigb-Arg], the “Ileum Activity” value in the experiment with guinea pig ileum (setting [4]) turned out to be 6.5. In addition, the “Uterus Activity, agonist potency given as percent of BK potency” value in the experiment on isolated rat uterus (isolated rat uterus) was found to be 48.6%. Besides, the “Blood Pressure: dose of peptide that causes 50% reduction in the effect of BK” value in experiment [3] is given as 0.05 micrograms.

Consider `N=C(N)NCCC[C@H](NC(=O)[C@@H]1C[C@@H]2CCCC[C@@H]2N1C(=O)[C@H](NC(=O)[C@H](CO)NC(=O)[C@H](Cc1cccs1)NC(=O)CNC(=O)[C@@H]1C[C@@H](O)CN1C(=O)[C@@H]1CCCN1C(=O)[C@H](CCCNC(=N)N)NC(=O)[C@@H](CCCNC(=N)N)NC(=O)CC12CC3CC(CC(C3)C1)C2)C1Cc2ccccc2C1)C(=O)O` [Compound 56, Aaa-DArg-Arg-Pro-Hyp-Gly-Thi-Ser-DIglb-Oic-Arg], for which, in the experiment on guinea pig ileum, the “Ileum Activity” value worked out at 7.8. In addition, in the experiment with isolated rat uterus, the “Uterus Activity … as pA2” value is given as 7.7. In addition, the IC50 at B1 receptors [1] is 692 nM. Also, the Ki on Human B2 receptors is 0.398 nM.

In the case of `N=C(N)NCCC[C@@H](N)C(=O)N[C@@H](CCCNC(=N)N)C(=O)N1CCC[C@H]1C(=O)N1C[C@H](O)C[C@H]1C(=O)NCC(=O)N[C@@H](Cc1cccs1)C(=O)N[C@@H](CO)C(=O)N[C@@H](C(=O)N1[C@H](C(=O)N[C@@H](CCCNC(=N)N)C(=O)O)C[C@@H]2CCCC[C@@H]21)C1Cc2ccccc2C1` [Compound 7, DArg-Arg-Pro-Hyp-Gly-Thi-Ser-DIglb-Oic-Arg], the “Ileum Activity” value in the experiment on guinea pig ileum was found to be 7.4. Further, the IC50 on B1 receptors [1] is 141 nM. Moreover, the “Mean ED50, B2 receptor-mediated hypotensive response” value on B2 receptors amounted to 0.17 mg/kg/min. Further, the “Mean ED50, B1 receptor-mediated hypotensive response” value at B1 receptors [2] was determined as 0.35 mg/kg/min.

Regarding `COc1cc(C=CC(=O)N[C@H](CCCNC(=N)N)C(=O)N[C@@H](CCCNC(=N)N)C(=O)N2CCC[C@H]2C(=O)N2C[C@H](O)C[C@H]2C(=O)NCC(=O)N[C@@H](Cc2cccs2)C(=O)N[C@@H](CO)C(=O)N[C@@H](C(=O)N2[C@H](C(=O)N[C@@H](CCCNC(=N)N)C(=O)O)C[C@@H]3CCCC[C@@H]32)C2Cc3ccccc3C2)cc(OC)c1O` [Compound 60, Sin-DArg-Arg-Pro-Hyp-Gly-Thi-Ser-DIglb-Oic-Arg], the “Ileum Activity” value in the experiment with guinea pig ileum is reported as 7.3. Besides, the “Uterus Activity … as pA2” value with isolated rat uterus is listed as 8.3. Besides, the IC50 on B1 receptors [1] is 2090 nM. Also, on Human B2 receptors, the Ki is 0.0692 nM.
